Earlier results in paper PMC9045302, “The Characterization of an Efficient Phenylpyruvate Decarboxylase KDC4427, Involved in 2-Phenylethanol and IAA Production from Bacterial Enterobacter sp. CGMCC 5087” (Microbiology Spectrum, 2022).

How the values were obtained:
KDC4427 [1] = target: T1, KDC4427 (Enterobacter sp. CGMCC 5087, UniProt Z9M8L3KFT6); experiment: coupled assay with yeast alcohol dehydrogenase, NADH at […] nm; format: biochemical; conditions: pH 7.0, 37°C, 0.2 mM ThDP, 0.1 mM MgSO4; footnote: authors' own data cited from their unpublished paper
T1 construct: tetramer stated from homology model; ThDP/Mg2+ dependent

KDC4427 [2] = target: T1, KDC4427; experiment: as above; format: biochemical; conditions: pH 7.0, 37°C, 0.2 mM ThDP, 0.1 mM MgSO4; footnote: authors' own data cited from their unpublished paper; remark: listed apart in the source

Row | Structure (SMILES) | Km (KDC4427 [1]) [mM] | Km (KDC4427 [2]) [mM]
1 | O=C(O)C(=O)Cc1ccccc1 [Phenylpyruvic acid] | 0.6 ± 0.02 | –
2 | O=C(O)C(=O)Cc1c[nH]c2ccccc12 [Indole-3-pyruvic acid] | – | 0.015 ± 0.002
